Read-outs that look alike come from different tables or passages of the source.
What was measured:
[1] = system: lymphocytes; test: Lymphocyte reduction in C57BL/6 mice; format: in vivo; conditions: Mus musculus, ip
Procedure: An experiment was performed to evaluate the effect of Bcl-2 selective/Bcl-xL sparing compounds on immune cells and platelets, as evaluated in C57Bl/6 mice. Mice were treated four days with compounds (doses of 30 mg/kg, administered by intraperitoneal injection every day) and cell numbers were measured with a Cell Dyn hematology analyzer 24 hours after the first and last doses. Exposure of the compound (area under the curve) was calculated by using time points of 1, 6, 10 and 24 hours after the last dose.

[2] = system: RS4;11 cells; test: RS4;11 cell viability assay (CellTiter Glo); format: cell-based; conditions: 10% human serum, 48 hours
Procedure, shortened: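 Cells seeded at 50,000 per well and exposed to compounds for 48 h at 37 C, 5% CO2 in the presence of 10% human serum. Viability read by CellTiter Glo; EC50 derived from percentage of viable cells versus untreated controls.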

[3] = molecular target: GST-Bcl-2 (Homo sapiens, UniProt P10415); test: TR-FRET Bcl-2 binding assay (F-Bak peptide probe); conditions: GST-Bcl-2 1 nM, F-Bak peptide probe 100 nM, Tb-anti-GST 1 nM; Wang's equation; '<' = below limit of detection
GST-Bcl-2, sequence (P10415 whole entry): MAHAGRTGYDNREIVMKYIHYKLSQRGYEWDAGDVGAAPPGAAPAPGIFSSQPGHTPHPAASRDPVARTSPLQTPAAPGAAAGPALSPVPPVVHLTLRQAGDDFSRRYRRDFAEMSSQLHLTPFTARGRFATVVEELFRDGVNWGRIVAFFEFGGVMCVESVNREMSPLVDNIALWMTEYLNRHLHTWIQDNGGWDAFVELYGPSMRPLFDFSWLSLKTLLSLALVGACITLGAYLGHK
Procedure, shortened: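 Competitive TR-FRET displacement of F-Bak peptide probe from GST-Bcl-2 detected with Tb-anti-GST antibody; compounds serially diluted in DMSO from 50 μM (2× starting concentration). Mixtures incubated 3 h at room temperature, read at 340 nm excitation with 520 and 495 nm emission. Ki derived by Wang's equation.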

[4] = 30 mg/kg intraperitoneal every day for four days, 24 hours after the last dose, read-out: Lymphocyte reduction % inh. day 4
[5] = 30 mg/kg intraperitoneal every day, 24 hours after the first dose, read-out: Lymphocyte reduction % inh. day 1

SMILES | inhibition at 30 mg/kg [1, 4] [%] | inhibition at 30 mg/kg [1, 5] [%] | EC50 [2] [nM] | Ki [3] [nM]
CC1(C)CCC(CN2CCN(c3ccc(C(=O)NS(=O)(=O)c4ccc(NC[C@@H]5COCCO5)c([N+](=O)[O-])c4)c(Oc4cnc5[nH]ccc5c4)c3)CC2)=C(c2ccc(Cl)cc2)C1 [Example 1, 4-(4-{[2-(4-chlorophenyl)-4,4-dimethylcyclohex-1-en-1-yl]methyl}piperazin-1-yl)-N-[(4-{[(2R)-1,4-dioxan-2-ylmethyl]amino}-3-nitrophenyl)sulfonyl]-2-(1H-pyrrolo[2,3-b]pyridin-5-yloxy)benzamide] | 41 | 41 | 5.3 | < 0.1
C[C@@H]1CO[C@@H](CNc2ccc(S(=O)(=O)NC(=O)c3ccc(N4CCN(CC5=C(c6ccc(Cl)cc6)CC(C)(C)CC5)CC4)cc3Oc3cnc4[nH]ccc4c3)cc2[N+](=O)[O-])CO1 [Example 44, 4-(4-{[2-(4-chlorophenyl)-4,4-dimethylcyclohex-1-en-1-yl]methyl}piperazin-1-yl)-N-{[4-({[(2S,5R)-5-methyl-1,4-dioxan-2-yl]methyl}amino)-3-nitrophenyl]sulfonyl}-2-(1H-pyrrolo[2,3-b]pyridin-5-yloxy)benzamide] | 60 | 66 | 4.7 | < 0.1
CC1(C)CCC(CN2CCN(c3ccc(C(=O)NS(=O)(=O)c4ccc(NCC5(O)CCOCC5)c([N+](=O)[O-])c4)c(Oc4cnc5[nH]ccc5c4)c3)CC2)=C(c2ccc(Cl)cc2)C1 [Example 6, 4-(4-{[2-(4-chlorophenyl)-4,4-dimethylcyclohex-1-en-1-yl]methyl}piperazin-1-yl)-N-[(4-{[(4-hydroxytetrahydro-2H-pyran-4-yl)methyl]amino}-3-nitrophenyl)sulfonyl]-2-(1H-pyrrolo[2,3-b]pyridin-5-yloxy)benzamide] | 24 | < 15 | 7.6 | < 0.1
CC1(C)CCC(CN2CCN(c3ccc(C(=O)NS(=O)(=O)c4ccc(NNC5CCOCC5)c([N+](=O)[O-])c4)c(Oc4cnc5[nH]ccc5c4)c3)CC2)=C(c2ccc(Cl)cc2)C1 [Example 18, 4-(4-{[2-(4-chlorophenyl)-4,4-dimethylcyclohex-1-en-1-yl]methyl}piperazin-1-yl)-N-({3-nitro-4-[2-(tetrahydro-2H-pyran-4-yl)hydrazinyl]phenyl}sulfonyl)-2-(1H-pyrrolo[2,3-b]pyridin-5-yloxy)benzamide] | 25 | < 15 | 47 | < 0.1
CC1(C)CCC(CN2CCN(c3ccc(C(=O)NS(=O)(=O)c4ccc(NC[C@@H]5CCOC(C)(C)C5)c([N+](=O)[O-])c4)c(Oc4cnc5[nH]ccc5c4)c3)CC2)=C(c2ccc(Cl)cc2)C1 [Example 34, 4-(4-{[2-(4-chlorophenyl)-4,4-dimethylcyclohex-1-en-1-yl]methyl}piperazin-1-yl)-N-{[4-({[(4R)-2,2-dimethyltetrahydro-2H-pyran-4-yl]methyl}amino)-3-nitrophenyl]sulfonyl}-2-(1H-pyrrolo[2,3-b]pyridin-5-yloxy)benzamide] | 61 | < 15 | 13 | < 0.1
CC1(C)CCC(CN2CCN(c3ccc(C(=O)NS(=O)(=O)c4ccc(NN5CCOCC5)c([N+](=O)[O-])c4)c(Oc4cnc5[nH]ccc5c4)c3)CC2)=C(c2ccc(Cl)cc2)C1 [Example 16, 4-(4-{[2-(4-chlorophenyl)-4,4-dimethylcyclohex-1-en-1-yl]methyl}piperazin-1-yl)-N-{[4-(morpholin-4-ylamino)-3-nitrophenyl]sulfonyl}-2-(1H-pyrrolo[2,3-b]pyridin-5-yloxy)benzamide] | < 15 | < 15 | 67 | < 0.1
CC1(C)CCC(CN2CCN(c3ccc(C(=O)NS(=O)(=O)c4ccc(NC[C@H]5CCCOCC5)c([N+](=O)[O-])c4)c(Oc4cnc5[nH]ccc5c4)c3)CC2)=C(c2ccc(Cl)cc2)C1 [Example 20, 4-(4-{[2-(4-chlorophenyl)-4,4-dimethylcyclohex-1-en-1-yl]methyl}piperazin-1-yl)-N-[(3-nitro-4-{[(4S)-oxepan-4-ylmethyl]amino}phenyl)sulfonyl]-2-(1H-pyrrolo[2,3-b]pyridin-5-yloxy)benzamide] | 57 | 20 | 19 | < 0.1
CC1(C)CCC(CN2CCN(c3ccc(C(=O)NS(=O)(=O)c4ccc(NC[C@H]5COCC(C)(C)O5)c([N+](=O)[O-])c4)c(Oc4cnc5[nH]ccc5c4)c3)CC2)=C(c2ccc(Cl)cc2)C1 [Example 37, 4-(4-{[2-(4-chlorophenyl)-4,4-dimethylcyclohex-1-en-1-yl]methyl}piperazin-1-yl)-N-{[4-({[(2S)-6,6-dimethyl-1,4-dioxan-2-yl]methyl}amino)-3-nitrophenyl]sulfonyl}-2-(1H-pyrrolo[2,3-b]pyridin-5-yloxy)benzamide] | 22 | 28 | 250 | < 0.1
CC1(C)CCC(CN2CCN(c3ccc(C(=O)NS(=O)(=O)c4ccc(NCC5(O)COC5)c([N+](=O)[O-])c4)c(Oc4cnc5[nH]ccc5c4)c3)CC2)=C(c2ccc(Cl)cc2)C1 [Example 15, 4-(4-{[2-(4-chlorophenyl)-4,4-dimethylcyclohex-1-en-1-yl]methyl}piperazin-1-yl)-N-[(4-{[(3-hydroxyoxetan-3-yl)methyl]amino}-3-nitrophenyl)sulfonyl]-2-(1H-pyrrolo[2,3-b]pyridin-5-yloxy)benzamide] | < 15 | < 15 | 9.3 | < 0.1
CC1(C)CCC(CN2CCN(c3ccc(C(=O)NS(=O)(=O)c4ccc(NC[C@@H]5[C@H]6COC[C@@H]56)c([N+](=O)[O-])c4)c(Oc4cnc5[nH]ccc5c4)c3)CC2)=C(c2ccc(Cl)cc2)C1 [Example 14, 4-(4-{[2-(4-chlorophenyl)-4,4-dimethylcyclohex-1-en-1-yl]methyl}piperazin-1-yl)-N-[(3-nitro-4-{[(1R,5S,6S)-3-oxabicyclo[3.1.0]hex-6-ylmethyl]amino}phenyl)sulfonyl]-2-(1H-pyrrolo[2,3-b]pyridin-5-yloxy)benzamide] | 54 | 61 | 10 | < 0.1
CC1(C)CCC(CN2CCN(c3ccc(C(=O)NS(=O)(=O)c4ccc(NC[C@@H]5CCOC5)c([N+](=O)[O-])c4)c(Oc4cnc5[nH]ccc5c4)c3)CC2)=C(c2ccc(Cl)cc2)C1 [Example 36, 4-(4-{[2-(4-chlorophenyl)-4,4-dimethylcyclohex-1-en-1-yl]methyl}piperazin-1-yl)-N-[(3-nitro-4-{[(3 S)-tetrahydrofuran-3-ylmethyl]amino}phenyl)sulfonyl]-2-(1H-pyrrolo[2,3-b]pyridin-5-yloxy)benzamide] | 42 | 47 | 32 | < 0.1

— US10081628B2, “Apoptosis-inducing agents for the treatment of cancer and immune and autoimmune diseases” (AbbVie Inc., priority 2013, dated 2018)
